Measured values published in patent US20260325533A1, “CDK INHIBITOR COMPOUNDS” (ALEKSIA THERAPEUTICS, INC., priority 2023, published 2026).
pIC50: −log10 of the molar value. Like-named read-outs stand apart in the source and are kept apart here.

Legend:
Type in all cases: biochemical
CDK4/CCND3 = CDK4/CCND3 (Homo sapiens, UniProt P11802); test: CDK4 homogeneous time-resolved fluorescence (HTRF) kinase assay; settings: CDK4/CCND
Method in brief: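 IC50 values were derived from 11-point half-log dilutions, usually starting at 10 μM. Compound was first held for 20 min at 23 °C with 1.5 nM CDK4/CCND3. 1 mM ATP and 50 nM ULight-eIF4E-BP1 (Thr37/46) substrate were then added for 60 min, and the TR-FRET 665 nm signal was measured after EDTA stop and Eu-anti-phospho-4E-BP1 detection.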

CDK1/CCNB1 = CDK1/CCNB1 (Homo sapiens, UniProt P06493); test: CDK1 homogeneous time-resolved fluorescence (HTRF) kinase assay; settings: CDK1/CCNB
CDK1/CCNB1, sequence (P06493 whole entry): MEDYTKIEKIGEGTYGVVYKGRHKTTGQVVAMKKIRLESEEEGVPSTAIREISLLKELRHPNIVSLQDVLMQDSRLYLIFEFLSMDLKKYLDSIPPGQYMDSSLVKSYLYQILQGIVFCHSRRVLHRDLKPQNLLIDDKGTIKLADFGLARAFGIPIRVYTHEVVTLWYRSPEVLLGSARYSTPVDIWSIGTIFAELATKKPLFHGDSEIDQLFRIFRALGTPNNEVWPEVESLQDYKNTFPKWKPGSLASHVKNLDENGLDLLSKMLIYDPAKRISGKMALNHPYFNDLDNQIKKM
CDK1/CCNB1, sequence (P14635 whole entry partner): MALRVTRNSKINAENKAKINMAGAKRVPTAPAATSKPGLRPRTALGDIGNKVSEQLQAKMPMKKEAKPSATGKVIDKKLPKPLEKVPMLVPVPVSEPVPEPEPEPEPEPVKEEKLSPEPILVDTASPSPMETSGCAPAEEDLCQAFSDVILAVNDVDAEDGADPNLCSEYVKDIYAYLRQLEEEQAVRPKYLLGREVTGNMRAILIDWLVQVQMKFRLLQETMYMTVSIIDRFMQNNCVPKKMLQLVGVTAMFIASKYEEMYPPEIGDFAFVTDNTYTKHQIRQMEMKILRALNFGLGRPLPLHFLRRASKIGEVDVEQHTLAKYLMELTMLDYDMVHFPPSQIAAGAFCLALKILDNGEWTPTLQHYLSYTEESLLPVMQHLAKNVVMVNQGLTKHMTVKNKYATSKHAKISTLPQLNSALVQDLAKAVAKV
Method in brief: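 Compounds, titrated 11 points in half-log steps typically from 10 μM, were incubated with enzyme for 20 min before ATP (1 mM) and ULight-labelled eIF4E-binding protein 1 peptide (50 nM) started a 60-min reaction at 23 °C. Phosphopeptide was detected by europium-antibody TR-FRET and IC50 values were derived.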

CDK2/CCNE1 = CDK2/CCNE1 (Homo sapiens, UniProt P24941); test: CDK2 homogeneous time-resolved fluorescence (HTRF) kinase assay; settings: CDK2/CCNE
Method in brief: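 An HTRF format measures CDK2/CCNE1 (3 nM) phosphorylating a 4E-BP1 Thr37/46 peptide at high (1 mM) ATP. Reactions run one hour at 23 °C, then EDTA-quenched and probed with Eu-labelled phospho-specific antibody.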

CDK6/CCND1 = CDK6/CCND1 (Homo sapiens, UniProt Q00534); test: CDK6 homogeneous time-resolved fluorescence (HTRF) kinase assay; settings: CDK6/CCND, 1 mM ATP
CDK6/CCND1, sequence (Q00534 whole entry): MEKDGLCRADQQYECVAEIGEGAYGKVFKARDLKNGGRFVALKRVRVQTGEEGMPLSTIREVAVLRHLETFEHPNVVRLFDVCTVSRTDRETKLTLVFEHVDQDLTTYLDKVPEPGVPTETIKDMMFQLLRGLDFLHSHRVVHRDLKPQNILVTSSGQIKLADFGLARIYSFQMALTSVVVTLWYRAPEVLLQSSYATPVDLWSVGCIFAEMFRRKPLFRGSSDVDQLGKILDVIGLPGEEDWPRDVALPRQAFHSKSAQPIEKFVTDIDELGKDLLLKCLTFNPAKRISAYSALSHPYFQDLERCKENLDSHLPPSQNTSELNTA
CDK6/CCND1, sequence (P24385 whole entry partner): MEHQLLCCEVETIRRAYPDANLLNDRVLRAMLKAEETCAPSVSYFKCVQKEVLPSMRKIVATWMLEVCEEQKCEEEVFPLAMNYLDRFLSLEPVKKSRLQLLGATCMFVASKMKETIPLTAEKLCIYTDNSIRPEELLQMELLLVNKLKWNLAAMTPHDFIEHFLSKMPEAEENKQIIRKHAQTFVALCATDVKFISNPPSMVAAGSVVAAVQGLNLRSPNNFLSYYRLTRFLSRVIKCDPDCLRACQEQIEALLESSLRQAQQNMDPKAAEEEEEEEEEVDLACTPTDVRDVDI
Method in brief: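 Recombinant CDK6/CCND1 (1 nM final) was preincubated with compound for 20 min at 23 °C in HEPES buffer with MgCl2, EGTA, DTT and Tween 20. Kinase reaction then ran 60 min at 23 °C with 1 mM ATP and 50 nM ULight-4E-BP1 (Thr37/46) peptide, and was stopped with EDTA.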

[1] = >250 nM, read-out: CDK4/CCND IC50, >250 nM
[2] = >250 nM, read-out: CDK1/CCNB IC50 >250 nM
[3] = 25-250 nM, read-out: CDK2/CCNE IC50, 25-250 nM
[4] = >250 nM, read-out: CDK6/CCND IC50, >250 nM
[5] = <25 nM, read-out: CDK2/CCNE IC50, <25 nM
[6] = 25-250 nM, read-out: CDK4/CCND IC50, 25-250 nM
[7] = 25-250 nM, read-out: CDK6/CCND IC50, 25-250 nM
[8] = 25-250 nM, read-out: CDK1/CCNB IC50, 25-250 nM

CDK4/CCND3, sequence (P11802 whole entry): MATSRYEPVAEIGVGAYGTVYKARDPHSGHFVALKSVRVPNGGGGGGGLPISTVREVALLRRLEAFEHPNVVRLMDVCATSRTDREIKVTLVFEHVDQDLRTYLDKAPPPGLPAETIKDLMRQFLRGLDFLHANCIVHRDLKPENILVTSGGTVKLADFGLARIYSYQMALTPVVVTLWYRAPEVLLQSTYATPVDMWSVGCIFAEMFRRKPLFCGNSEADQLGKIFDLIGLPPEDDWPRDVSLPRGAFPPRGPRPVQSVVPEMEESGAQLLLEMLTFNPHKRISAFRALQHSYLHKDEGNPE
CDK4/CCND3, sequence (P30281 whole entry partner): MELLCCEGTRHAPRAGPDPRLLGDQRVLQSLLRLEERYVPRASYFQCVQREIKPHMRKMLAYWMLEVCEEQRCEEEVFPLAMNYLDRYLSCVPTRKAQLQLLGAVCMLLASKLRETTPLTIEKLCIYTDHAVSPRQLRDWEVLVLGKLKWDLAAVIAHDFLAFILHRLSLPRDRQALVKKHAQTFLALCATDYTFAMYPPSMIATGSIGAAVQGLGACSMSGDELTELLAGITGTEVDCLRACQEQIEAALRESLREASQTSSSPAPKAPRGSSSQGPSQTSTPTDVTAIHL

pIC50 (CDK4/CCND3; [1]) | pIC50 (CDK1/CCNB1; [2]) | pIC50 (CDK2/CCNE1; [3]) | pIC50 (CDK6/CCND1; [4]) | pIC50 (CDK2/CCNE1; [5]) | pIC50 (CDK4/CCND3; [6]) | pIC50 (CDK6/CCND1; [7]) | pIC50 (CDK1/CCNB1; [8]) | SMILES
 | < 6.60 |  |  | > 7.60 | 6.60 to 7.60 | 6.60 to 7.60 |  | COc1ccc(NS(=O)(=O)c2ccc(Nc3cc4c(-c5ccc6c(cnn6CC(C)(C)O)c5C)nccc4cn3)cc2)nn1 [Ex 798, 4-((5-(1-(2-hydroxy-2-methylpropyl)-4-methyl-1H-indazol-5-yl)-2,6-naphthyridin-3-yl)amino)-N-(6-methoxypyridazin-3-yl)benzenesulfonamide]
< 6.60 | < 6.60 |  | < 6.60 | > 7.60 |  |  |  | Cc1c(-c2nccc3cnc(Nc4ccc(S(=O)(=O)Nc5ccc(C(F)(F)F)nn5)cc4)cc23)ccc2c1cnn2CC(C)(C)O [Ex 799, 4-((5-(1-(2-hydroxy-2-methylpropyl)-4-methyl-1H-indazol-5-yl)-2,6-naphthyridin-3-yl)amino)-N-(6-(trifluoromethyl)pyridazin-3-yl)benzenesulfonamide]
 |  |  |  | > 7.60 | 6.60 to 7.60 | 6.60 to 7.60 | 6.60 to 7.60 | Cc1ccc(NS(=O)(=O)c2ccc(Nc3cc4c(-c5ccc6c(cnn6CC(C)(C)O)c5C)nccc4cn3)cc2)nn1 [Ex 800, 4-((5-(1-(2-hydroxy-2-methylpropyl)-4-methyl-1H-indazol-5-yl)-2,6-naphthyridin-3-yl)amino)-N-(6-methylpyridazin-3-yl)benzenesulfonamide]
< 6.60 | < 6.60 |  | < 6.60 | > 7.60 |  |  |  | Cc1c(-c2nccc3cnc(Nc4ccc(S(=O)(=O)Nc5cccc(C(C)(C)O)c5)cc4)cc23)ccc2c1cnn2CC(C)(C)O [Ex 802, 4-((5-(1-(2-hydroxy-2-methylpropyl)-4-methyl-1H-indazol-5-yl)-2,6-naphthyridin-3-yl)amino)-N-(3-(2-hydroxypropan-2-yl)phenyl)benzenesulfonamide]
< 6.60 | < 6.60 |  | < 6.60 | > 7.60 |  |  |  | Cc1c(-c2nccc3cnc(Nc4ccc(S(=O)(=O)Nc5cccc(N6CCOCC6)c5)cc4)cc23)ccc2c1cnn2CC(C)(C)O [Ex 803, 4-((5-(1-(2-hydroxy-2-methylpropyl)-4-methyl-1H-indazol-5-yl)-2,6-naphthyridin-3-yl)amino)-N-(3-morpholinophenyl)benzenesulfonamide]
< 6.60 | < 6.60 |  | < 6.60 | > 7.60 |  |  |  | COc1cccc(NS(=O)(=O)c2ccc(Nc3cc4c(-c5ccc6c(cnn6CC(C)(C)O)c5C)nccc4cn3)cc2)c1 [Ex 804, 4-((5-(1-(2-hydroxy-2-methylpropyl)-4-methyl-1H-indazol-5-yl)-2,6-naphthyridin-3-yl)amino)-N-(3-methoxyphenyl)benzenesulfonamide]
< 6.60 | < 6.60 |  | < 6.60 | > 7.60 |  |  |  | COc1cc(NS(=O)(=O)c2ccc(Nc3cc4c(-c5ccc6c(cnn6CC(C)(C)O)c5C)nccc4cn3)cc2)cc(OC)c1 [Ex 805, N-(3,5-dimethoxyphenyl)-4-((5-(1-(2-hydroxy-2-methylpropyl)-4-methyl-1H-indazol-5-yl)-2,6-naphthyridin-3-yl)amino)benzenesulfonamide]
< 6.60 | < 6.60 | 6.60 to 7.60 | < 6.60 |  |  |  |  | Cc1c(-c2nccc3cnc(Nc4ccc(S(=O)(=O)Nc5cccc(C(F)(F)F)c5)cc4)cc23)ccc2c1cnn2CC(C)(C)O [Ex 806, 4-((5-(1-(2-hydroxy-2-methylpropyl)-4-methyl-1H-indazol-5-yl)-2,6-naphthyridin-3-yl)amino)-N-(3-(trifluoromethyl)phenyl)benzenesulfonamide]
< 6.60 | < 6.60 |  | < 6.60 | > 7.60 |  |  |  | Cc1cccc(NS(=O)(=O)c2ccc(Nc3cc4c(-c5ccc6c(cnn6CC(C)(C)O)c5C)nccc4cn3)cc2)c1 [Ex 807, 4-((5-(1-(2-hydroxy-2-methylpropyl)-4-methyl-1H-indazol-5-yl)-2,6-naphthyridin-3-yl)amino)-N-(m-tolyl)benzenesulfonamide]
< 6.60 | < 6.60 | 6.60 to 7.60 | < 6.60 |  |  |  |  | Cc1cc(C)cc(NS(=O)(=O)c2ccc(Nc3cc4c(-c5ccc6c(cnn6CC(C)(C)O)c5C)nccc4cn3)cc2)c1 [Ex 808, N-(3,5-dimethylphenyl)-4-((5-(1-(2-hydroxy-2-methylpropyl)-4-methyl-1H-indazol-5-yl)-2,6-naphthyridin-3-yl)amino)benzenesulfonamide]

More lines, now with the values behind:

SMILES | pIC50 (CDK4/CCND3; [1]) | pIC50 (CDK1/CCNB1; [2]) | pIC50 (CDK2/CCNE1; [3]) | pIC50 (CDK6/CCND1; [4]) | pIC50 (CDK2/CCNE1; [5]) | pIC50 (CDK4/CCND3; [6]) | pIC50 (CDK6/CCND1; [7]) | pIC50 (CDK1/CCNB1; [8])
Cc1c(-c2nccc3cnc(Nc4ccc(NS(=O)(=O)c5ccc(N6CCOCC6)cc5)cc4)cc23)ccc2c1cnn2CC(C)(C)O [Ex 786, N-(4-((5-(1-(2-hydroxy-2-methylpropyl)-4-methyl-1H-indazol-5-yl)-2,6-naphthyridin-3-yl)amino)phenyl)-4-morpholinobenzenesulfonamide] | < 6.60 | < 6.60 | 6.60 to 7.60 | < 6.60 |  |  |  | 
Cc1c(-c2nccc3cnc(Nc4ccc(NS(=O)(=O)c5ccccc5)cc4)cc23)ccc2c1cnn2CC(C)(C)O [Ex 787, N-(4-((5-(1-(2-hydroxy-2-methylpropyl)-4-methyl-1H-indazol-5-yl)-2,6-naphthyridin-3-yl)amino)phenyl)benzenesulfonamide] | < 6.60 | < 6.60 |  | < 6.60 | > 7.60 |  |  | 
Cc1c(-c2nccc3cnc(Nc4ccc(S(=O)(=O)NC5CCOCC5)cc4)cc23)ccc2c1cnn2CC(C)(C)O [Ex 793, 4-((5-(1-(2-hydroxy-2-methylpropyl)-4-methyl-1H-indazol-5-yl)-2,6-naphthyridin-3-yl)amino)-N-(tetrahydro-2H-pyran-4-yl)benzenesulfonamide] |  | < 6.60 |  |  | > 7.60 | 6.60 to 7.60 | 6.60 to 7.60 | 
Cc1c(-c2nccc3cnc(Nc4ccc(S(=O)(=O)NC5CC5)cc4)cc23)ccc2c1cnn2CC(C)(C)O [Ex 794, N-cyclopropyl-4-((5-(1-(2-hydroxy-2-methylpropyl)-4-methyl-1H-indazol-5-yl)-2,6-naphthyridin-3-yl)amino)benzenesulfonamide] |  | < 6.60 |  |  | > 7.60 | 6.60 to 7.60 | 6.60 to 7.60 | 
CCNS(=O)(=O)c1ccc(Nc2cc3c(-c4ccc5c(cnn5CC(C)(C)O)c4C)nccc3cn2)cc1 [Ex 795, N-ethyl-4-((5-(1-(2-hydroxy-2-methylpropyl)-4-methyl-1H-indazol-5-yl)-2,6-naphthyridin-3-yl)amino)benzenesulfonamide] |  | < 6.60 |  |  | > 7.60 | 6.60 to 7.60 | 6.60 to 7.60 | 
CNS(=O)(=O)c1ccc(Nc2cc3c(-c4ccc5c(cnn5CC(C)(C)O)c4C)nccc3cn2)cc1 [Ex 796, 4-((5-(1-(2-hydroxy-2-methylpropyl)-4-methyl-1H-indazol-5-yl)-2,6-naphthyridin-3-yl)amino)-N-methylbenzenesulfonamide] |  |  |  |  | > 7.60 | 6.60 to 7.60 | 6.60 to 7.60 | 6.60 to 7.60
Cc1c(-c2nccc3cnc(Nc4ccc(S(=O)(=O)Nc5ccncn5)cc4)cc23)ccc2c1cnn2CC(C)(C)O [Ex 797, 4-((5-(1-(2-hydroxy-2-methylpropyl)-4-methyl-1H-indazol-5-yl)-2,6-naphthyridin-3-yl)amino)-N-(pyrimidin-4-yl)benzenesulfonamide] | < 6.60 | < 6.60 | 6.60 to 7.60 | < 6.60 |  |  |  | 
